Experimental data taken from patent publication US20230322715A1, “BROAD SPECTRUM ANTI-CANCER COMPOUNDS” (The Regents of the University of California, priority 2019, published 2023).
Values joined by “and” are separate entries in the source; they are usually repeats but may differ in a detail not shown here. Identical values can stand only once. Like-named read-outs stand apart in the source and are kept apart here. Values belong to the compound of their own block, whether it stands above or below them.

Legend:
FTO = FTO (Homo sapiens (Human), UniProt Q9C0B1); assay: Fluorescence enzymatic inhibition assay (m6A7-Broccoli RNA / DFHBI-1T) against FTO; type: biochemical
Sequence of FTO (Q9C0B1 whole entry): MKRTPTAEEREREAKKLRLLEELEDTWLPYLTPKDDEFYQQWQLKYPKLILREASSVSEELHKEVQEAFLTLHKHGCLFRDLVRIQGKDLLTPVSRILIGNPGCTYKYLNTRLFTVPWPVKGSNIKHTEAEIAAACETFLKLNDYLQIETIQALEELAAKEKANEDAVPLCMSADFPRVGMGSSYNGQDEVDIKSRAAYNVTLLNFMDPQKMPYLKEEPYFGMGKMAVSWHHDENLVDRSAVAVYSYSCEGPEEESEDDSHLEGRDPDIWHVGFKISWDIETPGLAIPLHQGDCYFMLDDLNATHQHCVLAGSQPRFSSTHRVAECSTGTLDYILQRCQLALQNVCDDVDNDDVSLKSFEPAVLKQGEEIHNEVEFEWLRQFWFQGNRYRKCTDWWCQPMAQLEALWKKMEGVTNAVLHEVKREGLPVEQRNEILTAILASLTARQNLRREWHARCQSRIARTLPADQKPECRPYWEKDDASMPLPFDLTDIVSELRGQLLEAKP
Experimental: In order to determine their efficacy as FTO inhibitors, the compounds were screened by a fluorescence enzymatic inhibition assay developed previously by the Jaffrey lab.^44 Briefly, a nonfluorescent methylated RNA substrate termed “m6A7-Broccoli” is incubated with FTO in the presence of 2-oxoglutarate (300 μM), (NH4)2Fe(SO4)2·6H2O (300 μM), and L-ascorbate (2 mM) for 2 hours at room temperature in reaction buffer (50 mM NaHEPES, pH 6).
(§1) Inhibitors were added in concentrations ranging from 0.008-40 μM; all inhibitors were dissolved in DMSO and added to a final concentration of 0.2% DMSO. […] After incubation at room temperature for 2 hours, the plates were left at 4° C. overnight (16 hours) to allow DFHBI-1T to bind to A7-Broccoli RNA. […] Sigmoidal dose-response curves were fitted in GraphPad Prism 6. All assays were performed in triplicate, with additional repetitions added as necessary.

ALKBH5 = ALKBH5 (Homo sapiens (Human), UniProt Q6P6C2); assay: Fluorescence enzymatic inhibition assay (m6A7-Broccoli RNA / DFHBI-1T) against ALKBH5; type: biochemical
Sequence of ALKBH5 (Q6P6C2 whole entry): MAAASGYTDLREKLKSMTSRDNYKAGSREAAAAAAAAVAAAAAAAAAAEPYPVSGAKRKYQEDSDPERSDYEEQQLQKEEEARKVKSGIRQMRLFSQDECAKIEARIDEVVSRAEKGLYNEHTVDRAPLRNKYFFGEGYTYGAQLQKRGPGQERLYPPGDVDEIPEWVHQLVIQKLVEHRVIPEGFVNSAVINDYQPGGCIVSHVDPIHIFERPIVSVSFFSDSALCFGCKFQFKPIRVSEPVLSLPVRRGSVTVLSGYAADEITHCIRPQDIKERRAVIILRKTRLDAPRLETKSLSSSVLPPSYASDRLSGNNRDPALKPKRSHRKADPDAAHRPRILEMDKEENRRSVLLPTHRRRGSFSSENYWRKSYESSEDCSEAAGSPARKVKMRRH
Experimental: as §1

[1] = elogD / log D determination
[2] = Table 700 compounds, read-out: Enzymatic IC50 FTO
[3] = Table 700 compounds, read-out: Enzymatic IC50 ALKBH5
[4] = m6A7-Broccoli fluorescence assay, 0.250 μM ALKBH5, read-out: Enzymatic IC50 ALKBH5
[5] = m6A7-Broccoli fluorescence assay, 0.250 μM FTO, inhibitor up to 40 μM, triplicate, read-out: Enzymatic IC50 FTO
[6] = Table 800 compounds, read-out: FTO IC50
[7] = Table 800 compounds, read-out: ALKBH5 IC50

Structure (SMILES): Cc1ccc2[nH]cc(CNCC3(N4CCCC4)COC3)c2c1 [TR-FTO-09]
IC50 (ALKBH5; [4]): > 40 µM

Structure (SMILES): FC(F)(F)c1cccc(CNCC2(N3CCCC3)COC2)c1 [TR-FTO-02]
IC50 (FTO; [5]): 4.3 µM
IC50 (ALKBH5; [4]): 19.5 µM
elogD [1]: 1.02

Structure (SMILES): COc1ccc(CNC(=O)C2CC(Oc3ccccc3)CN2C(=O)c2ccccc2OC)c(OC)c1 (stereo not shown) [TR-FTO 2-04]
IC50 (FTO; read-out: Enzymatic IC50 FTO): 6.67 ± 2.31 µM

Structure (SMILES): c1ccc2c(CNCC3(N4CCCC4)COC3)c[nH]c2c1 [TR-FTO-13]
IC50 (FTO; [5]): 1 µM
IC50 (ALKBH5; [4]): > 40 µM

Structure (SMILES): FC1CCN(C2(CNCc3ccc(-c4ccccc4)o3)COC2)C1 (stereo not shown) [TR-FTO-48]
IC50 (FTO; [5]): 2 µM
IC50 (ALKBH5; [4]): 2.6 µM
elogD [1]: 1.34

Structure (SMILES): COc1cccc2c(CNCC3(N4CCCC4)COC3)c[nH]c12 [TR-FTO-14]
IC50 (ALKBH5; [4]): > 40 µM
elogD [1]: 0.40

Structure (SMILES): FC1CCN(C2(CNCc3c[nH]c4ccccc34)COC2)C1 (stereo not shown) [TR-FTO-47]
IC50 (FTO; [5]): 2.1 µM
IC50 (ALKBH5; [4]): > 40 µM

Structure (SMILES): Fc1cccc2[nH]cc(CNCC3(N4CCCC4)COC3)c12 [TR-FTO-17]
IC50 (FTO; [5]): 1.3 µM
IC50 (ALKBH5; [4]): 2.5 µM

Structure (SMILES): COc1ccccc1C(=O)N1CC(Oc2ccccc2)CC1C(=O)Nc1ccc(C)c(C)c1 (stereo not shown) [TR-FTO 2-02]
IC50 (FTO; read-out: Enzymatic IC50 FTO): 0.19 ± 0.03 µM

Structure (SMILES): Cc1ccc(NS(=O)(=O)c2ccc(OC(F)(F)F)cc2)cc1C [TR-ALKBH5-34]
IC50 (FTO; [6]): > 40 µM
IC50 (ALKBH5; [7]): 23.3 µM
elogD ([1]; Table 800 compounds): 0.60

Structure (SMILES): Fc1ccc2c(CNCC3(N4CCCC4)COC3)c[nH]c2c1 [TR-FTO-12]
IC50 (ALKBH5; [4]): 2.3 µM

Structure (SMILES): O=S(=O)(Nc1ccc(Cl)c(C(F)(F)F)c1)c1ccc(OC(F)(F)F)cc1 [TR-ALKBH5-25]
IC50 (FTO; [6]): > 40 µM
IC50 (ALKBH5; [7]): 1.6 µM
elogD ([1]; Table 800 compounds): 1.50

Structure (SMILES): CC1(C)[C@H](C(=O)O)N2C(=O)C[C@H]2S1(=O)=O [ALK-09]
IC50 (FTO; [2]): > 40 µM
IC50 (ALKBH5; [3]): 3.8 µM and 5.7 µM
elogD ([1]; Table 700 compounds): 0.41

Structure (SMILES): O=S(=O)(Nc1cc(Cl)ccc1O)c1ccc(OC(F)(F)F)cc1 [TR-ALKBH5-29]
IC50 (FTO; [6]): > 40 µM
IC50 (ALKBH5; [7]): 0.11 µM
elogD ([1]; Table 800 compounds): 0.88

Structure (SMILES): COc1ncc(-c2ccc3nc(N)sc3c2)cn1 [FTO-4, 6-(2-methoxypyrimidin-5-yl)benzo[d]thiazol-2-amine]
IC50 (FTO; [5]): 3.39 ± 2.5 µM
IC50 (ALKBH5; [4]): 39.4 ± 3.1 µM

Structure (SMILES): Cc1ccc(CNCC2(N3CCCC3)COC2)cc1C [TR-FTO-30]
IC50 (ALKBH5; [4]): 9.9 µM
elogD [1]: 0.87

Structure (SMILES): O=S(=O)(Nc1nccnc1O)c1ccc(OC(F)(F)F)cc1 [TR-ALKBH5-31]
IC50 (FTO; [6]): > 40 µM
IC50 (ALKBH5; [7]): 13.7 µM
elogD ([1]; Table 800 compounds): 2.33

Structure (SMILES): O=S(=O)(Nc1ccc(F)c(Cl)c1)c1ccc(OC(F)(F)F)cc1 [TR-ALKBH5-38]
IC50 (FTO; [6]): 27.6 µM
IC50 (ALKBH5; [7]): 1.9 µM
elogD ([1]; Table 800 compounds): 2.58

Structure (SMILES): COc1ccc(CNC(=O)C2CC(Oc3ccccc3)CN2C(=O)c2ccccc2OC)cc1 (stereo not shown) [TR-FTO 2-03]
IC50 (FTO; read-out: Enzymatic IC50 FTO): 1.24 ± 0.65 µM

Structure (SMILES): CC(=O)c1ccc(S(=O)(=O)NCC2CCCOC2)cc1 (stereo not shown) [TR-ALKBH5-05]
IC50 (FTO; [6]): > 40 µM
IC50 (ALKBH5; [7]): 1.9 µM
elogD ([1]; Table 800 compounds): 1.12

Structure (SMILES): O=S(=O)(Nc1cccc(O)c1)c1ccc(OC(F)(F)F)cc1 [TR-ALKBH5-39]
IC50 (FTO; [6]): > 40 µM
IC50 (ALKBH5; [7]): 3.1 µM
elogD ([1]; Table 800 compounds): 1.60

Structure (SMILES): O=S(=O)(Nc1ccccc1N1CCCCC1)c1ccc(OC(F)(F)F)cc1 [TR-ALKBH5-36]
IC50 (FTO; [6]): 23.2 µM
IC50 (ALKBH5; [7]): 0.4 µM
elogD ([1]; Table 800 compounds): 1.13

Structure (SMILES): COc1cc(NC(=O)C2CC(Oc3ccccc3)CN2C(=O)c2ccccc2OC)cc(OC)c1 (stereo not shown) [TR-FTO 2-01]
IC50 (FTO; read-out: Enzymatic IC50 FTO): 0.61 ± 0.17 µM

Further lines, results first:

IC50 (FTO; [2]): > 40 µM
IC50 (ALKBH5; [3]): 8.8 µM and 7.95 µM
elogD ([1]; Table 700 compounds): 0.89
Structure (SMILES): O=C(O)[C@H]1NCCS1 [ALK-06]

IC50 (FTO; [2]): > 40 µM
IC50 (ALKBH5; [3]): 16.6 µM
elogD ([1]; Table 700 compounds): 1.40
Structure (SMILES): CC(C)(C)OC(=O)N1CCC(F)(C2NCCS2)C1 (stereo not shown) [ALK-02]

IC50 (FTO; [2]): > 40 µM
IC50 (ALKBH5; [3]): > 40 µM
elogD ([1]; Table 700 compounds): 0.62
Structure (SMILES): O=C(O)N1CCC(F)(C2NCCS2)C1 (stereo not shown) [ALK-03]

IC50 (ALKBH5; ALK series, permeability data and IC50 tables, read-out: Enzymatic IC50 ALKBH5): 18.2 µM
Structure (SMILES): COC(=O)C1COC(c2ccc(OC)cc2O)N1 (stereo not shown) [ALK-17]

IC50 (FTO; [2]): > 40 µM
IC50 (ALKBH5; [3]): 1.4 ± 0.4 µM
elogD ([1]; Table 700 compounds): 0.67
Structure (SMILES): CCN(CC)c1ccc(C2NC(C(=O)OC)CS2)c(O)c1 (stereo not shown) [ALK-30]

IC50 (FTO; [2]): > 40 µM
IC50 (ALKBH5; [3]): 6.7 ± 1.8 µM
elogD ([1]; Table 700 compounds): 2.12
Structure (SMILES): COC(=O)C1COC(c2ccc(O)cc2)N1 (stereo not shown) [ALK-13]

IC50 (FTO; [2]): > 40 µM
IC50 (ALKBH5; [3]): 19.8 ± 1.8 µM
elogD ([1]; Table 700 compounds): 0.16
Structure (SMILES): CC1(C)SCC(C)(C(=O)O)N1C(N)=O (stereo not shown) [ALK-05]

IC50 (FTO; [2]): > 40 µM
IC50 (ALKBH5; [3]): 1.7 ± 1.1 µM
elogD ([1]; Table 700 compounds): 0.54
Structure (SMILES): O=C1N[C@H](C(=O)O)CS1 [ALK-10]
